From US11780851B2, “LRRK2 inhibitors” (H. Lundbeck A/S, priority 2021, dated 2023)

Columns and labels:
LRRK2 G2019S = target: T1, LRRK2 G2019S (Homo sapiens, UniProt Q5S007, G2019S); assay: LRRK2 G2019S kinase activity assay (LanthaScreen TR-FRET); format: biochemical; settings: 250 pM LRRK2 G2019S, 1.3 mM ATP, 3 h at 30° C.; n≥2 tests
T1 construct: purchased Invitrogen (Life Technologies Corporation)
Description: (§1) LRRK2 kinase activity was measured using a LanthaScreen kinase activity assay available from Invitrogen (Life Technologies Corporation). The assay is a homogeneous time resolved-fluorescence resonance energy transfer (TR-FRET) assay that measures phosphorylation of a fluorescein-labelled peptide substrate Fluorescein-ERM LRRKtide obtainable from Life Technologies Corporation as a result of LRRK2 kinase activity. The phosphorylated peptide is recognized by a terbium-labelled phospho-specific anti-LRRKtide antibody (pLRRKtide antibody), obtainable from Life Technologies Corporation and, subsequently, the phosphorylated LRRKtide can be quantified by the extent of TR-FRET between the terbium donor and fluorescein acceptor. The LRRK2 kinase was obtained from Invitrogen (Life Technologies Corporation) and comprises residue 970 to 2527 of the full length human wild-type LRRK2 kinase, or a similar sequence with the G2019S mutation. As discussed above, this mutation increases the kinase activity relative to the wild type. The kinase reactions were performed in a 20 μL volume in 384-well plates. […] The mixture was further incubated for 30 minutes at RT. […] The measurement was repeated 30 times for fluorescein and 30 times for terbium emission with a 1000 μs time window between repeats. TR-FRET measurements were performed on a Biotek Synergy plate. The TR-FRET signal was calculated as the emission-ratio at 520 nm over 495 nm. The TR-FRET ratio readout for test compounds was normalized to 0% inhibition corresponding to TR-FRET ratio measured in control wells with no inhibition of the kinase activity and 100% inhibition corresponding to TR-FRET ratio measured in control wells with inhibitor. […] C is the IC50 value and D is the Hill slope coefficient. IC50 estimates were obtained from independent experiment and the logarithmic average was calculated.

LRRK2 WT = target: T2, LRRK2 WT (Homo sapiens, UniProt Q5S007); assay: LRRK2 wild-type kinase activity assay (LanthaScreen TR-FRET); format: biochemical; settings: 1 nM LRRK2 WT, 1.3 mM ATP, 3.5 h at 30° C.; n≥2 tests
T2 construct: comprises residue 970 to 2527 of the full length human wild-type LRRK2 kinase; purchased Invitrogen (Life Technologies Corporation)
T2 sequence (Q5S007 970-2527): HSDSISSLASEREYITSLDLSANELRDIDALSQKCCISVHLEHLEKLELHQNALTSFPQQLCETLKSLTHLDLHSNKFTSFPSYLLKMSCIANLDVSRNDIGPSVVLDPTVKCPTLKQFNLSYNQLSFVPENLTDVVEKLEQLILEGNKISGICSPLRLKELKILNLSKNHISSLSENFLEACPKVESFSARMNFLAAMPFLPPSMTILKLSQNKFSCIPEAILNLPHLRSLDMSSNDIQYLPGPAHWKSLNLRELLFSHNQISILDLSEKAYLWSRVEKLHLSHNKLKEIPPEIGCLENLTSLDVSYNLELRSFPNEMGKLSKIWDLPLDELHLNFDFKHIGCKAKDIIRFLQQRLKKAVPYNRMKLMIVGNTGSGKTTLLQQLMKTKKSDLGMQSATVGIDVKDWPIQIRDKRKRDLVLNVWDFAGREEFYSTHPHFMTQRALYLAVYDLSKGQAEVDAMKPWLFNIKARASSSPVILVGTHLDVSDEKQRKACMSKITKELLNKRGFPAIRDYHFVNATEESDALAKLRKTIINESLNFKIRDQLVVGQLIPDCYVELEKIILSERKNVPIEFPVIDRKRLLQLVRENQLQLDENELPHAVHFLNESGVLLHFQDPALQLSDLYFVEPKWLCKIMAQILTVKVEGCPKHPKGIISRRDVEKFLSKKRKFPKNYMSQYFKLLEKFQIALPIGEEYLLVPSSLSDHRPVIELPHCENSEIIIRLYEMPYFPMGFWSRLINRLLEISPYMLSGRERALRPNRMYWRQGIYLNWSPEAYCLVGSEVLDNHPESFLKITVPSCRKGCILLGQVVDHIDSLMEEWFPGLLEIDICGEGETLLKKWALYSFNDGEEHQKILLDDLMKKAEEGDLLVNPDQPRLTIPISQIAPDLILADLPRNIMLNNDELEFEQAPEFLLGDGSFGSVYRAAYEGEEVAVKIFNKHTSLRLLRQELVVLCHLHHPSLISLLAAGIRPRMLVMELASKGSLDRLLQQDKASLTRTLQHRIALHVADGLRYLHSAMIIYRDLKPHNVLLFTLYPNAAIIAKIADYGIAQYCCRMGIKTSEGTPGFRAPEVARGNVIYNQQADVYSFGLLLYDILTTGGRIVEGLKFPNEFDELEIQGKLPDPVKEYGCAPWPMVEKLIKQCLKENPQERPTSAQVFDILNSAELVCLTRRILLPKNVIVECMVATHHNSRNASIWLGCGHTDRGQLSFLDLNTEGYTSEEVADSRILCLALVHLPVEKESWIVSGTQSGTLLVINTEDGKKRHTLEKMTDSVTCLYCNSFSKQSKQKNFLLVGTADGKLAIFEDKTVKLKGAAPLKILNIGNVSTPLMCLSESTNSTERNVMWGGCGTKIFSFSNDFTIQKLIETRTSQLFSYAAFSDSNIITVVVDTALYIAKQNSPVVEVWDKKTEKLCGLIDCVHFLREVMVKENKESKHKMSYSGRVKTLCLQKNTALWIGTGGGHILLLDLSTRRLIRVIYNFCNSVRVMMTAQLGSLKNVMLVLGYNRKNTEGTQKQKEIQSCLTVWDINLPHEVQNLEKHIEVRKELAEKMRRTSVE
Description: as §1

T1 sequence (Q5S007 970-2527 G2019S): as the sequence (Q5S007 970-2527) above, with G1050S counted along it

| SMILES | IC50 (LRRK2 G2019S) | IC50 (LRRK2 WT) |
| --- | --- | --- |
| Cc1c2c(nn1[C@@H]1CCOC[C@@H]1C)OCCCn1nc(Cl)c3cnc(nc31)N2 (single isomer, unassigned) [Example 22, 8-Chloro-3-methyl-2-((3R,4S) or (3S,4R) or (3S,4S) or (3R,4R)-3-methyltetrahydro-2H-pyran-4-yl)-2,4,12,13-tetrahydro-11H-5,7-(azenometheno)dipyrazolo[3,4-b:5′,1′-g][1]oxa[4,6,8]triazacycloundecine] | 3.5 nM | 10 nM |
| Cc1c2c(nn1[C@H]1CCOC[C@]1(C)F)OCCCn1nc(Cl)c3cnc(nc31)N2 (single isomer, unassigned) [Example 48, (−)-8-Chloro-2-((3R,4S) or (3S,4R)-3-Fluoro-3-methyltetrahydro-2H-pyran-4-yl)-3-methyl-2,4,12,13-tetrahydro-11H-5,7-(azenometheno)dipyrazolo[3,4-b:5′,1′-g][1]oxa[4,6,8]triazacycloundecine] | 18 nM | 90 nM |
| Cc1c2c(nn1[C@H]1CCOC(C)(C)C1)OCCCn1nc(Cl)c3cnc(nc31)N2 (single isomer, unassigned) [Example 43, (−)-(R) or (S)-8-Chloro-2-(2,2-dimethyltetrahydro-2H-pyran-4-yl)-3-methyl-2,4,12,13-tetrahydro-11H-5,7-(azenometheno)dipyrazolo[3,4-b:5′,1′-g][1]oxa[4,6,8]triazacycloundecine] | 5.3 nM | 17 nM |
| Cc1c2c(nn1[C@@H]1CCOC3(CC3)C1)OCCCn1nc(Cl)c3cnc(nc31)N2 (single isomer, unassigned) [Example 54, (−)-(R) or (S)-8-Chloro-3-methyl-2-(4-oxaspiro[2.5]octan-7-yl)-2,4,12,13-tetrahydro-11H-5,7-(azenometheno)dipyrazolo[3,4-b:5′,1′-g][1]oxa[4,6,8]triazacycloundecine] | 0.88 nM | 2.6 nM |
| Cc1c2c(nn1C1CCC(F)(F)CC1)OCCCn1nc(Cl)c3cnc(nc31)N2 [Example 26, 8-Chloro-2-(4,4-difluorocyclohexyl)-3-methyl-2,4,12,13-tetrahydro-11H-5,7-(azenometheno)dipyrazolo[3,4-b:5′,1′-g][1]oxa[4,6,8]triazacycloundecine] | 5.9 nM | 21 nM |
| CCc1c2c(nn1[C@@H]1CCOC[C@H]1F)OCCCn1nc(Cl)c3cnc(nc31)N2 (single isomer, unassigned) [Example 56, (−)-8-Chloro-3-ethyl-2-((3R,4S) or (3S,4R)-3-fluorotetrahydro-2H-pyran-4-yl)-2,4,12,13-tetrahydro-11H-5,7-(azenometheno)dipyrazolo[3,4-b:5′,1′-g][1]oxa[4,6,8]triazacycloundecine] | 2 nM | 4.9 nM |
| [2H]C([2H])([2H])c1c2c(nn1[C@H]1CCOC3(CC3)C1)OCCCn1nc(Cl)c3cnc(nc31)N2 (single isomer, unassigned) [Example 65, (+)-(R) or (S)-8-Chloro-3-(methyl-d3)-2-(4-oxaspiro[2.5]octan-7-yl)-2,4,12,13-tetrahydro-11H-5,7-(azenometheno)dipyrazolo[3,4-b:5′,1′-g][1]oxa[4,6,8]triazacycloundecine] | 1.7 nM | 4.8 nM |
| Cc1c2c(nn1C1CC3(COC3)C1)OCCCn1nc(Cl)c3cnc(nc31)N2 [Example 34, 8-Chloro-3-methyl-2-(2-oxaspiro[3.3]heptan-6-yl)-2,4,12,13-tetrahydro-11H-5,7-(azenometheno)dipyrazolo[3,4-b:5′,1′-g][1]oxa[4,6,8]triazacycloundecine] | 5.7 nM | 18 nM |
| [2H]C1([2H])Oc2nn(C3CCOCC3)c(C)c2Nc2ncc3c(Cl)nn(c3n2)C([2H])([2H])C1([2H])[2H] [Example 20, 8-Chloro-3-methyl-2-(tetrahydro-2H-pyran-4-yl)-2,4,12,13-tetrahydro-11H-5,7-(azenometheno)dipyrazolo[3,4-b:5′,1′-g][1]oxa[4,6,8]triazacycloundecine-11,11,12,12,13,13-d6] | 5.1 nM | 14 nM |
| Cc1c2c(nn1CC1CCOCC1)OCCCn1nc(Cl)c3cnc(nc31)N2 [Example 49, 8-Chloro-3-methyl-2-((tetrahydro-2H-pyran-4-yl)methyl)-2,4,12,13-tetrahydro-11H-5,7-(azenometheno)dipyrazolo[3,4-b:5′,1′-g][1]oxa[4,6,8]triazacycloundecine] | 4.7 nM | 9.4 nM |
| [2H]C1([2H])CCn2nc(Cl)c3cnc(nc32)Nc2c(nn(C3CCOCC3)c2C)O1 [Example 46, 8-Chloro-3-methyl-2-(tetrahydro-2H-pyran-4-yl)-2,4,12,13-tetrahydro-11H-5,7-(azenometheno)dipyrazolo[3,4-b:5′,1′-g][1]oxa[4,6,8]triazacycloundecine-13,13-d2] | 3.1 nM | 12 nM |
| Cc1c2c(nn1[C@@H]1CC1(F)F)OCCCn1nc(Cl)c3cnc(nc31)N2 (single isomer, unassigned) [Example 39, (−)-(R) or (S)-8-Chloro-2-(2,2-difluorocyclopropyl)-3-methyl-2,4,12,13-tetrahydro-11H-5,7-(azenometheno)dipyrazolo[3,4-b:5′,1′-g][1]oxa[4,6,8]triazacycloundecine] | 7.8 nM | 19 nM |
| Cc1c2c(nn1[C@H]1CCCCOC1)OCCCn1nc(Cl)c3cnc(nc31)N2 (single isomer, unassigned) [Example 28, (+)-(R) or (S)-8-Chloro-3-methyl-2-(oxepan-3-yl)-2,4,12,13-tetrahydro-11H-5,7-(azenometheno)dipyrazolo[3,4-b:5′,1′-g][1]oxa[4,6,8]triazacycloundecine] | 5.3 nM | 19 nM |
| FC1(c2c3c(nn2C2CCOCC2)OCCCn2nc(Cl)c4cnc(nc42)N3)CC1 [Example 16, 8-Chloro-3-(1-fluorocyclopropyl)-2-(tetrahydro-2H-pyran-4-yl)-2,4,12,13-tetrahydro-11H-5,7-(azenometheno)dipyrazolo[3,4-b:5′,1′-g][1]oxa[4,6,8]triazacycloundecine] | 16 nM | 60 nM |
| Cc1c2c(nn1C1(C#N)CC1)OCCCn1nc(Cl)c3cnc(nc31)N2 [Example 36, 1-(8-Chloro-3-methyl-12,13-dihydro-11H-5,7-(azenometheno)dipyrazolo[3,4-b:5′,1′-g][1]oxa[4,6,8]triazacycloundecin-2(4H)-yl)cyclopropane-1-carbonitrile] | 7.2 nM | 23 nM |
| Cc1c2c(nn1[C@@H]1CCOC[C@@H]1C)OCCCn1nc(Cl)c3cnc(nc31)N2 (single isomer, unassigned) [Example 23, 8-Chloro-3-methyl-2-((3R,4S) or (3S,4R) or (3S,4S) or (3R,4R)-3-methyltetrahydro-2H-pyran-4-yl)-2,4,12,13-tetrahydro-11H-5,7-(azenometheno)dipyrazolo[3,4-b:5′,1′-g][1]oxa[4,6,8]triazacycloundecine] | 20 nM | 44 nM |
| [2H]C([2H])([2H])c1c2c(nn1[C@@H]1CCOC[C@H]1F)OCCCn1nc(Cl)c3cnc(nc31)N2 (single isomer, unassigned) [Example 63, (+)-8-Chloro-2-((3R,4S) or (3S,4R)-3-fluorotetrahydro-2H-pyran-4-yl)-3-(methyl-d3)-2,4,12,13-tetrahydro-11H-5,7-(azenometheno)dipyrazolo[3,4-b:5′,1′-g][1]oxa[4,6,8]triazacycloundecine] | 4 nM | 11 nM |
| [2H]C1([2H])CCOc2nn(C3CCOCC3)c(C)c2Nc2ncc3c(Cl)nn1c3n2 [Example 45, 8-Chloro-3-methyl-2-(tetrahydro-2H-pyran-4-yl)-2,4,12,13-tetrahydro-11H-5,7-(azenometheno)dipyrazolo[3,4-b:5′,1′-g][1]oxa[4,6,8]triazacycloundecine-11,11-d2] | 3.6 nM | 13 nM |
| Cc1c2c(nn1[C@@H]1CCOC[C@@H]1C)OCCCn1nc(Cl)c3cnc(nc31)N2 (single isomer, unassigned) [Example 24, 8-Chloro-3-methyl-2-((3R,4S) or (3S,4R) or (3S,4S) or (3R,4R)-3-methyltetrahydro-2H-pyran-4-yl)-2,4,12,13-tetrahydro-11H-5,7-(azenometheno)dipyrazolo[3,4-b:5′,1′-g][1]oxa[4,6,8]triazacycloundecine] | 4.7 nM | 14 nM |
| [2H]C([2H])([2H])c1c2c(nn1[C@H]1CCOC3(CC3)C1)OCCCn1nc(Cl)c3cnc(nc31)N2 (single isomer, unassigned) [Example 64, (−)-(R) or (S)-8-Chloro-3-(methyl-d3)-2-(4-oxaspiro[2.5]octan-7-yl)-2,4,12,13-tetrahydro-11H-5,7-(azenometheno)dipyrazolo[3,4-b:5′,1′-g][1]oxa[4,6,8]triazacycloundecine] | 5 nM | 11 nM |
